Results on 22 compounds are retold here after patent US11839613B2, “Pyrimidine derivatives as PGE2 receptor modulators” (IDORSIA PHARMACEUTICALS LTD, priority 2017, dated 2023).

One experiment deals with PTGER2 (EP2) (Homo sapiens (Human), UniProt P43116). Briefly: hEP2 b-arrestin assay (PathHunter HEK 293 PTGER2 b-arrestin cells). It is filed as cell-based. The settings on record: antagonistic activity, beta-arrestin assay; read-out: hEP2 b-arr IC50. On the procedure:
Plate is pre-incubated 15 minutes at 37° C. Then five microliters of PGE2 (final conc. 5 μM) are transferred into the assay plate. Plate is incubated 120 minutes at 37° C.
(each concentration is measured in duplicate)

A further experiment has as its target PTGER4 (EP4) (Homo sapiens (Human), UniProt P35408). In words: cell-based.

PTGER2 (EP2), sequence (P43116 whole entry): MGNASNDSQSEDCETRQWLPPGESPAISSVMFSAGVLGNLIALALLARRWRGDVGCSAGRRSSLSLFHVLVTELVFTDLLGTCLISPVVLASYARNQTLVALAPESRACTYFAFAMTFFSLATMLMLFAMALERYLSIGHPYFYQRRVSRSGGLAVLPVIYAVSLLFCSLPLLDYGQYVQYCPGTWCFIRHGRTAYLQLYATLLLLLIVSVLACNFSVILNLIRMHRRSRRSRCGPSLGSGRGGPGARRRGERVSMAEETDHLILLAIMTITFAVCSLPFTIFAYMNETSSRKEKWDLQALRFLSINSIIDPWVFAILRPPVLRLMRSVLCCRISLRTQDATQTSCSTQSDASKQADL
PTGER4 (EP4), sequence (P35408 whole entry): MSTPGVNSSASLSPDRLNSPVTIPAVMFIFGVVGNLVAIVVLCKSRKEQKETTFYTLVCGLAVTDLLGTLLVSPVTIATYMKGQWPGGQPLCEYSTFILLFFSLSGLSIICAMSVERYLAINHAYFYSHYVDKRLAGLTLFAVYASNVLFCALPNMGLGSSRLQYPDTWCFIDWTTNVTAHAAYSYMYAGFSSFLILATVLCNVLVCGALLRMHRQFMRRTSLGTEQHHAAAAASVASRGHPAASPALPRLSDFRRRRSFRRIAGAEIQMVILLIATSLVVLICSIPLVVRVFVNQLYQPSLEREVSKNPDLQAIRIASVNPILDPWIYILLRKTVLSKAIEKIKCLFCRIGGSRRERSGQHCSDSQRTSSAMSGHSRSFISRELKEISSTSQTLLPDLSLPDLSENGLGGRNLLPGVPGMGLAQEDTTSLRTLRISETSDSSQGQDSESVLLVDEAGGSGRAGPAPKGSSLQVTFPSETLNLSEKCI

One may read the IC50 as the concentration needed to halve the response being measured. In the case of `CCCc1cc(-c2cc(NCCc3cc4c(cc3OCC)OCCO4)ncn2)ccc1CC(=O)O` [Example 402, (4-{6-[2-(7-Ethoxy-2,3-dihydro-benzo[1,4]dioxin-6-yl)-ethylamino]-pyrimidin-4-yl}-2-propyl-phenyl)-acetic acid], the IC50 on PTGER2 (EP2) was determined as 22 nM; against PTGER4 (EP4), 61 nM.

In the case of `CCCc1cc(-c2cc(NCCc3cc(F)c4scc(Cl)c4c3)ncn2)ccc1CC(=O)O` [Example 501, (4-{6-[2-(3-Chloro-7-fluoro-benzo[b]thiophen-5-yl)-ethylamino]-pyrimidin-4-yl}-2-propyl-phenyl)-acetic acid], the IC50 on PTGER2 (EP2) worked out at 196 nM; against PTGER4 (EP4), 808 nM.

In the case of `CCOc1cc(-c2cc(NCCc3cc(F)c4sccc4c3)ncn2)sc1C(=O)O` [Example 362, 3-Ethoxy-5-{6-[2-(7-fluoro-benzo[b]thiophen-5-yl)-ethylamino]-pyrimidin-4-yl}-thiophene-2-carboxylic acid], the IC50 is 20 nM at PTGER2 (EP2) and 6 nM against PTGER4 (EP4).

For the compound `COC(=O)c1ccc(-c2cc(NCCc3cc(F)c4sccc4c3)ncn2)cc1OC1CC1` [Example 538, 2-Cyclopropoxy-4-{6-[2-(7-fluoro-benzo[b]thiophen-5-yl)-ethylamino]-pyrimidin-4-yl}-benzoic acid methyl ester], the IC50 worked out at 685 nM at PTGER2 (EP2) and 99 nM at PTGER4 (EP4).

As for `CCOc1cc(-c2cc(NCCc3ccc4sccc4c3)ncn2)cc(F)c1CC(=O)O` [Example 370, {4-[6-(2-Benzo[b]thiophen-5-yl-ethylamino)-pyrimidin-4-yl]-2-ethoxy-6-fluoro-phenyl}-acetic acid], the figures for the IC50 at PTGER2 (EP2) and on PTGER4 (EP4) were 438 nM and 105 nM, respectively.

Consider `CC(C)Cc1cc(-c2cc(NCCc3ccc4sccc4c3F)ncn2)ccc1C(=O)O` [Example 413, 4-{6-[2-(4-Fluoro-benzo[b]thiophen-5-yl)-ethylamino]-pyrimidin-4-yl}-2-isobutyl-benzoic acid], for which the IC50 at PTGER2 (EP2) came to 62 nM; against PTGER4 (EP4) it was 41 nM.

`COc1cc2sccc2cc1CCNc1cc(-c2ccc(CC(=O)O)c(OC)c2)ncn1` [Example 381, (2-Methoxy-4-{6-[2-(6-methoxy-benzo[b]thiophen-5-yl)-ethylamino]-pyrimidin-4-yl}-phenyl)-acetic acid]: the IC50 at PTGER2 (EP2) came out at 51 nM; against PTGER4 (EP4) it was 126 nM.

With `CSc1cc(-c2cc(NCCc3cc(C)c4sccc4c3)ncn2)ccc1C(=O)O` [Example 477, 4-{6-[2-(7-Methyl-benzo[b]thiophen-5-yl)-ethylamino]-pyrimidin-4-yl}-2-methylsulfanyl-benzoic acid], the values for the IC50 at PTGER2 (EP2) and against PTGER4 (EP4) were 316 nM and 210 nM, respectively.

Take `O=c1nc(-c2ccc(-c3cc(NCCc4cc(F)c5sccc5c4)ncn3)cc2)o[nH]1` [Example 543, 5-(4-(6-((2-(7-fluorobenzo[b]thiophen-5-yl)ethyl)amino)pyrimidin-4-yl)phenyl)-[1,2,4]oxadiazol-3(2H)-one]: the IC50 at PTGER2 (EP2) is 612 nM; against PTGER4 (EP4), 124 nM.

Consider `Cc1c(CCNc2cc(-c3ccc(C(=O)O)c(OC4CCC4)c3)ncn2)ccc2ccsc12` [Example 471, 2-Cyclobutoxy-4-{6-[2-(7-methyl-benzo[b]thiophen-6-yl)-ethylamino]-pyrimidin-4-yl}-benzoic acid], for which the IC50 was determined as 207 nM at PTGER2 (EP2) and 300 nM against PTGER4 (EP4).

`COc1cc(-c2cc(NCCc3cc(F)c4sccc4c3)ncn2)ccc1OCCC(=O)O` [Example 438, 3-(4-{6-[2-(7-Fluoro-benzo[b]thiophen-5-yl)-ethylamino]-pyrimidin-4-yl}-2-methoxy-phenoxy)-propionic acid]: the IC50 on PTGER2 (EP2) amounted to 519 nM; against PTGER4 (EP4), 49 nM.

With `CCOc1cc(-c2cc(NCCc3ccc4sccc4c3F)ncn2)cc(F)c1CC(=O)O` [Example 375, (2-Ethoxy-6-fluoro-4-{6-[2-(4-fluoro-benzo[b]thiophen-5-yl)-ethylamino]-pyrimidin-4-yl}-phenyl)-acetic acid], the IC50 came to 229 nM at PTGER2 (EP2) and 46 nM against PTGER4 (EP4).

With `CCCc1cc(-c2cc(NCCc3cc(F)c4sccc4c3)ncn2)cc(OCC)c1C(=O)O` [Example 551, 2-Ethoxy-4-{6-[2-(7-fluoro-benzo[b]thiophen-5-yl)-ethylamino]-pyrimidin-4-yl}-6-propyl-benzoic acid], the IC50 amounted to 900 nM at PTGER2 (EP2) and 867 nM against PTGER4 (EP4).

For the compound `CC(C)Oc1cc(-c2cc(NCCc3ccc4sccc4c3F)ncn2)ccc1CC(=O)O` [Example 424, (4-{6-[2-(4-Fluoro-benzo[b]thiophen-5-yl)-ethylamino]-pyrimidin-4-yl}-2-isopropoxy-phenyl)-acetic acid], the IC50 at PTGER2 (EP2) is 424 nM; at PTGER4 (EP4), 80 nM.

For `CCOc1cc(-c2cc(NCCc3cc4ccsc4c(F)c3OC)ncn2)sc1C(=O)O` [Example 484, 3-Ethoxy-5-{6-[2-(7-fluoro-6-methoxy-benzo[b]thiophen-5-yl)-ethylamino]-pyrimidin-4-yl}-thiophene-2-carboxylic acid], the IC50 on PTGER2 (EP2) and at PTGER4 (EP4) was 3 nM throughout.

In the case of `CCCc1cc(-c2cc(NCCc3cc4c(cc3OC)OCCO4)ncn2)ccc1C(=O)O` [Example 379, 4-{6-[2-(7-Methoxy-2,3-dihydro-benzo[1,4]dioxin-6-yl)-ethylamino]-pyrimidin-4-yl}-2-propyl-benzoic acid], the IC50 on PTGER2 (EP2) came out at 51 nM; against PTGER4 (EP4), 155 nM.

Consider `COc1cc2c(cc1CCNc1cc(-c3ccc(C(=O)O)c(OC4CC4)c3)ncn1)OCCO2` [Example 520, 2-Cyclopropoxy-4-{6-[2-(7-methoxy-2,3-dihydro-benzo[1,4]dioxin-6-yl)-ethylamino]-pyrimidin-4-yl}-benzoic acid], for which the IC50 on PTGER2 (EP2) was determined as 19 nM; against PTGER4 (EP4), 107 nM.

As for `CCOc1cc2c(cc1CCNc1cc(-c3ccc(C(=O)O)c(CC)c3)ncn1)OCCO2` [Example 516, 4-{6-[2-(7-Ethoxy-2,3-dihydro-benzo[1,4]dioxin-6-yl)-ethylamino]-pyrimidin-4-yl}-2-ethyl-benzoic acid], the IC50 is 23 nM at PTGER2 (EP2) and 930 nM at PTGER4 (EP4).

In the case of `CCCc1cc(-c2cc(NCCc3ccc4sccc4c3)ncn2)ccc1C(C)C(=O)O` (racemic) [Example 481, rac-2-{4-[6-(2-Benzo[b]thiophen-5-yl-ethylamino)-pyrimidin-4-yl]-2-propyl-phenyl}-propionic acid], the IC50 on PTGER2 (EP2) was determined as 328 nM; at PTGER4 (EP4) it was 63 nM.

As for `Fc1cc(CCNc2cc(-c3ccc4[nH]ccc4c3)ncn2)cc2ccsc12` [Example 539, [2-(7-Fluoro-benzo[b]thiophen-5-yl)-ethyl]-[6-(1H-indol-5-yl)-pyrimidin-4-yl]amine], the IC50 on PTGER2 (EP2) was 452 nM; against PTGER4 (EP4), 225 nM.

In the case of `COc1c(CCNc2cc(-c3ccc(C(=O)O)c(CC(C)C)c3)ncn2)cc2ccsc2c1F` [Example 415, 4-{6-[2-(7-Fluoro-6-methoxy-benzo[b]thiophen-5-yl)-ethylamino]-pyrimidin-4-yl}-2-isobutyl-benzoic acid], the results for the IC50 at PTGER2 (EP2) and at PTGER4 (EP4) were 63 nM and 52 nM, respectively.

On to `CCOc1cc(-c2cc(NCCc3cc(F)c4scc(Cl)c4c3)ncn2)ccc1CC(=O)O` [Example 502, (4-{6-[2-(3-Chloro-7-fluoro-benzo[b]thiophen-5-yl)-ethylamino]-pyrimidin-4-yl}-2-ethoxy-phenyl)-acetic acid], for which the concentration for half-maximal inhibition (IC50) on PTGER2 (EP2) amounted to 103 nM; against PTGER4 (EP4), 903 nM.
